Patent US9764059B2, “Chlorhexidine gluconate containing solvent adhesive” (Avery Dennison Corporation, priority 2011, dated 2017)

Tests used:
[1] = cited from earlier work
Solubility = assay type: physicochemical

N=C(NCCCCCCNC(=N)NC(=N)Nc1ccc(Cl)cc1)NC(=N)Nc1ccc(Cl)cc1.O=C(O)[C@H](O)[C@@H](O)[C@H](O)[C@H](O)CO.O=C(O)[C@H](O)[C@@H](O)[C@H](O)[C@H](O)CO [chlorhexidine gluconate]
solubility in solvents [1]: only soluble in methanol and acetone

N=C(NCCCCCCNC(=N)NC(=N)Nc1ccc(Cl)cc1)NC(=N)Nc1ccc(Cl)cc1 [Chlorhexidine base]
solubility in water (Solubility): low solubility in water
